Assay results reported in paper PMC3305904, “N^β-methylation changes the recognition pattern of aza-β^3-amino acid containing peptidomimetic substrates by protein kinase A” (Organic and Medicinal Chemistry Letters, 2011).
Where two headings read alike, the source gives them in different places.

Experiments:
[1] = target: T1, PKA catalytic subunit (Homo sapiens, UniProt P17612); settings: parent peptide, cited from earlier work
Experimental: Table 1 Phosphorylation of N^β-methylated peptidomimetic substrates by PKA catalytic subunit at ATP concentration 100 μM, 30°C, 50 mM TRIS/HCl, pH 7 | column: Km (μM); 10^2 kcat (μmole mg^-1 s^-1); 10^2 kII (L mg^-1 s^-1)

[2] = target: T1, PKA catalytic subunit; assay: PKA-catalyzed phosphorylation of peptide/peptidomimetic substrates, [γ-32P]ATP, phosphocellulose paper binding; format: biochemical; settings: ATP 100 μM, 30°C, 50 mM TRIS/HCl, pH 7; for 10^2 kcat: Michaelis-Menten fit, value is kcat multiplied by 10^2; for 10^2 kII (second order rate constant): from the initial linear part of the Michaelis-Menten plot, value is kII multiplied by 10^2; for Km: substrate phosphorylation by PKA catalytic subunit, Michaelis-Menten fit of initial velocities, substrate concentration varied
Experimental: The phosphorylation reactions followed the classical Michaelis-Menten rate equation and therefore all substrates were characterized by the Km and kcat values, which correspond to the constant ATP concentration of 0.1 mM. The initial linear part of the Mihaelis-Menten plot was used for the calculation of the second order rate constants kII as described in [10] and these values are also listed in Table 1. Agreement between the parameters kII and values of the ratio of kcat/Km for substrates confirms the applicability of the Michelis-Menten rate equation for the description of the kinetic data.
The method of kinetic measurements was described in our previous article and was based on utilizing the radioactive ATP with [^32P]phosphate in γ-position. The phosphorylated substrates were bound onto Whatman phosphocellulose paper and the paper-bound radioactivity was counted. Linear plots between filter-bound radioactivity and time were used for calculating the initial velocity values of the phosphorylation reaction, which were thereafter processed by the classical Michaelis-Menten rate equation. Kinetic experiments were made at constant ATP concentration (100 μM) and the Km and kcat values were calculated for peptidomimetic substrates, concentrations of which were varied in the reaction mixture.

| Substance | Km ([1]; phosphorylation by PKA) | 10^2 kII (second order rate constant) ([1]; value is kII multiplied by 10^2) | 10^2 kcat ([1]; value is kcat multiplied by 10^2) | 10^2 kcat [2] | 10^2 kII (second order rate constant) [2] | Km [2] |
| --- | --- | --- | --- | --- | --- | --- |
| RRASVA | 11.1 ± 3.5 µM | 3.2 ± 0.1 L mg^-1 s^-1 | 36 ± 3 μmole mg^-1 s^-1 |  |  |  |
| RRASVA [I, RRASVA analog with one N^β-Me-aza-β^3-amino acid residue; likely the N-terminal Arg] |  |  |  | 24.4 ± 1.5 μmole mg^-1 s^-1 | 0.098 ± 0.010 L mg^-1 s^-1 | 209 ± 24 µM |
| RRASVA [II, RRASVA analog with one N^β-Me-aza-β^3-amino acid residue; likely the second Arg] |  |  |  | 11.9 ± 1.0 μmole mg^-1 s^-1 | 0.11 ± 0.07 L mg^-1 s^-1 | 79 ± 18 µM |
| RRASVA [III, RRASVA analog with one N^β-Me-aza-β^3-amino acid residue; likely Ala at position -1] |  |  |  | 5.5 ± 0.3 μmole mg^-1 s^-1 | 0.034 ± 0.005 L mg^-1 s^-1 | 91 ± 15 µM |
| RRASVA [IV, RRASVA analog with one N^β-Me-aza-β^3-amino acid residue; likely Val] |  |  |  | 16 ± 2.0 μmole mg^-1 s^-1 | 0.12 ± 0.02 L mg^-1 s^-1 | 118 ± 36 µM |
| RRASVA [RRASVA analog with one N^β-Me-aza-β^3-amino acid residue; likely the C-terminal Ala] |  |  |  | 5.0 ± 0.4 μmole mg^-1 s^-1 | 0.090 ± 0.015 L mg^-1 s^-1 | 57 ± 17 µM |
